Where no end group is shown, it is not given here.
What was measured:
Format in all cases: in vivo, rat
MeCP2 SUMOylation = assay: In vitro SUMOylation assay for CA1 tissue
Procedure: Hippocampal CA1 tissue lysate was prepared in the same way as that prepared for western blot. For immunoprecipitating the MeCP2, the clarified lysate (0.5 mg) was immunoprecipitated with 3 μl of anti-MeCP2 antibody (Catalog No. 3456, Cell Signaling) at […] overnight. The protein A agarose beads ([…], 50% slurry, GE Healthcare, Barrington, Ill.) were added to the IP reaction product to catch the immune complex at […] for 3 h. The immune complex on beads were washed three times with washing buffer containing 20 mM HEPES (pH 7.4), 150 mM NaCl, 1 mM EDTA, 1% IGEPAL CA-630, 1 mM DTT, 50 mM β-glycerophosphate, 50 mM NaF, […] PMSF, […] and subject to in vitro SUMOylation reaction with the addition of recombinant PIAS1 protein (3 μl, Catalog No. BML-UW9960, Enzo Life
Sciences, Farmingdale, N.Y.), E1(1 μl), E2 (1 μl) and the SUMO1 (0.5 μl) proteins provided in the kit. In vitro SUMOylation assay was performed using the SUMO linkTM kit according to the manufacturer's instructions (Active Motif, Carlsbad, Calif.) and boiled in Laemmli sample buffer at 95° C. for 10 min. The in vitro SUMOylation product was subject to 8% SDS-PAGE followed by transferring onto the PVDF membrane (Millipore). The membrane was immunoblotted with anti-MeCP2 antibody (1:1000, Catalog No. 3456, Cell Signaling) or anti-SUMO1 antibody (1:4000, Catalog No. 40120, Active Motif). For determination of endogenous MeCP2 SUMOylation after PIAS1 siRNA transfection, no E1, E2, SUMO1 and PIAS1 proteins were added to the IP reaction product. The remaining procedures were the same as that for carrying out the in vitro SUMOylation assay.
Rats were anesthetized with pentobarbital (40 mg/kg) and subject to stereotaxic surgery. Two 23-gauge, stainless-steel, thin-wall cannulae were implanted bilaterally to the CA1 area of rat brain at the following coordinates: 3.5 mm posterior to the bregma, ±2.5 mm lateral to the midline and 3.4 mm ventral to the skull surface. After recovery from the surgery, NMDA (2 μg/μl), IGF-1 (100 ng/ml), CRF (100 ng/μl) and dexamethasone (30 ng/μl) were directly injected to the CA1 area at a rate of 0.1 μl/min. A total of 0.7 μl was injected to each side. For transient Mecp2 plasmid DNA transfection, 0.7 μg/μl plasmid DNA complex ([…]) was injected directly to CA1 area bilaterally in the rat brain using the non-viral transfection agent polyethyleneimine (PEI). Before injection, plasmid DNA was diluted in 5% glucose to a stock concentration of 2.77 μg/μl. Branched PEI of 25 kDa (Sigma, St. Louis, Mo.) was diluted to 0.1 M concentration in 5% glucose and added to the DNA solution. Immediately before injection, 0.1 M PEI was added to reach a ratio of PEI nitrogen per DNA phosphate equals to 10. […]

[1] = test system: MeCP2 phosphorylation at Ser-421; assay: MeCP2 phosphorylation at Ser-421 in CA1 area (western blot); settings: 1 hr
Procedure: (§1) The E3 SUMO-protein ligase PIAS1, MeCP2, Flag, V5 and Myc, the clarified lysate (0.5 mg) was immunoprecipitated by mixed with 0.5 μl of anti-PIAS1 antibody (Catalog No. 2474-1, Epitomics, Burlingame, Calif.), 2 μl of anti-MeCP2 antibody (Catalog No. 3456, Cell Signaling, Danvers, Mass.), 2 μl of anti-Flag M2 antibody (Catalog No. F1804, Sigma-Aldrich, St. Louis, Mo.), 1 μl of anti-VS antibody (Catalog No. MCA2895, AbD Serotec, Kidlington, UK) and 2 μl of anti-Myc antibody (Catalog No. 05-419, Millipore, Bedford, Mass.) at 4° C., and allowed the mixture to react overnight. Twenty microliter of rabbit or mouse IgG was used in the control group. The protein A or G magnetic beads ([…], 50% slurry, GE Healthcare, Barrington, IL) were added to the IP reaction product to catch the immune complex at 4° C. for 3 h. The immune complex on beads were washed three times with washing buffer containing 20 mM HEPES (pH 7.4), 150 mM NaCl, 1 mM EDTA, 1% IGEPAL CA-630, 1 mM DTT, 50 mM β-glycerophosphate, 50 mM NaF, 10 mg/ml PMSF, 4 µg/ml aprotinin, 4 μg/ml leupeptin and 4 μg/ml pepstatin, and then subject to 8% SDS-PAGE followed by transferring onto the Nitrocellulose (NC) membrane (GE Healthcare). […] The protein bands were quantified by using the NIH Image J Software. […]

PIAS1 = PIAS1 expression in CA1 area (western blot); settings: siRNA 8 pmol; FIG. 2h lower panel
Procedure: as §1

CN[C@H](CC(=O)O)C(=O)O [NMDA, N-methyl-D-aspartate]
level of MeCP2 SUMOylation (MeCP2 SUMOylation; NMDA 2 μg/μl injected to CA1 area, 1 hr, vs Flag-vector + PBS, FIG. 3b): increased the level of MeCP2 SUMOylation | phosphorylation level of MeCP2 at Ser-421 ([1]; NMDA 2 μg/μl injected to CA1 area, FIG. 3b): increased the phosphorylation level of MeCP2 at Ser-421

IGF-1: Insulin-like growth factor-1, purchased from Sigma-Aldrich
level of MeCP2 SUMOylation (MeCP2 SUMOylation; IGF-1 100 ng/ml injected to CA1 area, 1 hr later, vs PBS, FIG. 3c): significantly increased the level of MeCP2 SUMOylation | phosphorylation level of MeCP2 at Ser-421 ([1]; IGF-1 100 ng/ml injected to CA1 area, FIG. 3c): increased the phosphorylation level of MeCP2 at Ser-421

PIAS1 siRNA: siRNA against PIAS1, SEQ ID NO: 18 and 19 (chain 1 UCCGGAUCAUUCUAGAGCUTT; chain 2 AGCUCUAGAAUGAUCCGGATT; chemistry not given here)
level of endogenous MeCP2 SUMOylation (MeCP2 SUMOylation; siRNA 8 pmol to CA1 area, 48 hrs later, vs control siRNA, FIG. 2g, 2h): significantly decrease the level of endogenous MeCP2 SUMOylation | PIAS1 expression in CA1 area (PIAS1): decreased PIAS1 expression

CRF: Corticotropin-releasing factor, purchased from Sigma-Aldrich (SEEPPISLDLTFHLLREVLEMARAEQLAQQAHSNRKLMEII; ends and bridges not checked; UniProt P06850 154-194, looked up)
level of MeCP2 SUMOylation (MeCP2 SUMOylation; CRF injected to CA1 area, 1 hr later, vs PBS, FIG. 3d): markedly increased the level of MeCP2 SUMOylation
